What was measured:
[1] = biological target: T1, Human DAGLα (Homo sapiens, UniProt Q9Y4D2); experiment: DAGLα activity (Compound A); assay type: biochemical; settings: in vitro
T1 construct: made in house; host or cells: HEK293T cells (transfected, pcDNA3.1D); membranes used
T1 sequence (Q9Y4D2 1-1042): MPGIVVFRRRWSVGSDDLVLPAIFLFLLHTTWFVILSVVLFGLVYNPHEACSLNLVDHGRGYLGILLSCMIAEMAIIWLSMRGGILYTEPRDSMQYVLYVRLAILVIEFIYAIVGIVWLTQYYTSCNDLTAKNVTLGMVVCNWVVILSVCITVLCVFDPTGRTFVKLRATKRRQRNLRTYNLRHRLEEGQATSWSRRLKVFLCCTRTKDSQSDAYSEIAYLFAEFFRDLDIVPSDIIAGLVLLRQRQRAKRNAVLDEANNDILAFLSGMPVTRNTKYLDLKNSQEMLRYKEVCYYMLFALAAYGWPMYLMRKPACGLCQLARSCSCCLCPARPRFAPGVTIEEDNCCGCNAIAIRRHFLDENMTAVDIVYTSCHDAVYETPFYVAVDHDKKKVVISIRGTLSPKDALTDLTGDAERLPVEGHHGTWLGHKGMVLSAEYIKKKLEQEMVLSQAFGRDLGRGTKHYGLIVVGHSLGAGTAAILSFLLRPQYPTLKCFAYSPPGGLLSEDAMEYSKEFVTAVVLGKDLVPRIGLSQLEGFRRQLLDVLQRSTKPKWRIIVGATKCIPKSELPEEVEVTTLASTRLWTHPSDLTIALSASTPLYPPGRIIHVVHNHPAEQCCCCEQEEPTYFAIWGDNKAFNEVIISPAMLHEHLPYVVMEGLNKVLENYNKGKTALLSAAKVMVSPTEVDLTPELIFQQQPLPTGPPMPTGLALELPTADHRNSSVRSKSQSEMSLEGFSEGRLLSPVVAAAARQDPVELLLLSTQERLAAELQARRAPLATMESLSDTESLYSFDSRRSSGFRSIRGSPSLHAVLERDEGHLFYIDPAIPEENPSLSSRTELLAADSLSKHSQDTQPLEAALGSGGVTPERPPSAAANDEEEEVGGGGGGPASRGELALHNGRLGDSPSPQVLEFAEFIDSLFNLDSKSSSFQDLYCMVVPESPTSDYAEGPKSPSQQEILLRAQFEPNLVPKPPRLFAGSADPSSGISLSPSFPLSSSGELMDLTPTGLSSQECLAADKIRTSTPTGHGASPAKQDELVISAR

[2] = Detection of Compound A in brain extract; settings: 2 hours after i.p. injection, LC-MS/MS
[3] = system: ICR mice; experiment: Novel object recognition; assay type: in vivo; settings: 10 mg/kg i.p., prior to object memory retrieval
Description: Mice were handled 4 days prior to training for at least 1 min per day. During pre-training, mice were placed in an open Plexiglas rectangular chamber for 10 minutes in order for the mice to become familiar with the testing environment. Twenty-four hours later, the mice were placed into the same rectangular chamber with two identical sample objects, yellow rubber ducks, for 10 minutes in order for the mice to become familiar with the objects. During training, the sample objects were placed in opposite corners in the back of the chamber 5 cm from each wall and secured by weight to the floor of the chamber. Twenty-four hours later, the mice were placed into the chamber again with one sample or familiar object and a novel object, a white leaf statue, for 5 minutes. During testing, the objects were placed in opposite corners in the back of the chamber 5 cm from each wall and secured by weight to the floor of the chamber.
To determine exploration time with the sample and novel objects, each mouse was timed when interacting with the sample or novel object when the nose of the mouse was in contact with the object or directed toward the object within a 2 cm distance of the object. […] In addition, a discrimination ratio (e.g., ratio of a mouse's interaction with a novel object to that mouse's total interaction with both sample and novel objects) was determined. […]

[4] = biological target: T2, humanized rat FAAH (Rattus norvegicus, UniProt P97612, A377T/F194Y/I491V/L192F/S435N/V495M); experiment: FAAH activity (Compound A); assay type: biochemical; settings: in vitro
T2 sequence (P97612 30-579 L192F/F194Y/A377T/S435N/I491V/V495M limits assumed): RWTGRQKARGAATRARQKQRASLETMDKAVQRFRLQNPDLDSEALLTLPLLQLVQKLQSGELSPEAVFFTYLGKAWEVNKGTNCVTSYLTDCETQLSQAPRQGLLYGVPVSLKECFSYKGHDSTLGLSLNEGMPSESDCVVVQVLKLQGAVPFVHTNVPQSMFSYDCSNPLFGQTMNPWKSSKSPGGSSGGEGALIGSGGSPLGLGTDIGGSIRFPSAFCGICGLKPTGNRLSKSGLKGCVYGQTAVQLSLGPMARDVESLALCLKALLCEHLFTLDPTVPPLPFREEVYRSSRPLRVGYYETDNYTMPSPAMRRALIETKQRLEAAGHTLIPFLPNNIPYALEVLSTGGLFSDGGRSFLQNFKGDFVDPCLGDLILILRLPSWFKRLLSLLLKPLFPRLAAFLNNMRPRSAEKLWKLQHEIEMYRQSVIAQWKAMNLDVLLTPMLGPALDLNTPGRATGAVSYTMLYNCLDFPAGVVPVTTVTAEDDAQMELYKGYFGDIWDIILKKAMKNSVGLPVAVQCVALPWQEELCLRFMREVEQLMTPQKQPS

With `COc1ccc2c(c1)c(CC(=O)N1CCOCC1)c(C)n2C(=O)c1ccc(Cl)cc1` [Compound A, 2-[1-(4-Chloro-benzoyl)-5-methoxy-2-methyl-1H-indol-3-yl]-1-morpholin-4-yl-ethanone] the “Inhibition of DAGLα” value [1] was “did not inhibit”, the “Indomethacin in brain extract after Compound A treatment” value [2] was “not detected” and the “Presence of compound in brain” value [2] was “present in the brain”. For the same molecule, the “Memory deficits in the novel object recognition assay” value [3] was “did not induce memory deficits” and the “Inhibition of FAAH” value [4] was “did not inhibit”.

— patent US20150183737A1, “COMPOSITIONS AND METHODS FOR SUBSTRATE-SELECTIVE INHIBITION OF ENDOCANNABINOID OXYGENATION” (Vanderbilt University, priority 2012, published 2015)
